From publication PMC9351465, “Mechanism-based heparanase inhibitors reduce cancer metastasis in vivo” (Proceedings of the National Academy of Sciences of the …, 2022)

What was measured:
HPSE = molecular target: T1, HPSE (Homo sapiens, UniProt Q9Y251); assay: competitive activity-based protein profiling (cABPP) with ABP 7, recombinant HPSE; details: recombinant HPSE 20 nM, 1 h preincubation at 37°C, then 100 nM ABP 7, pH 5.5
T1 sequence (Q9Y251 158-543 limits assumed): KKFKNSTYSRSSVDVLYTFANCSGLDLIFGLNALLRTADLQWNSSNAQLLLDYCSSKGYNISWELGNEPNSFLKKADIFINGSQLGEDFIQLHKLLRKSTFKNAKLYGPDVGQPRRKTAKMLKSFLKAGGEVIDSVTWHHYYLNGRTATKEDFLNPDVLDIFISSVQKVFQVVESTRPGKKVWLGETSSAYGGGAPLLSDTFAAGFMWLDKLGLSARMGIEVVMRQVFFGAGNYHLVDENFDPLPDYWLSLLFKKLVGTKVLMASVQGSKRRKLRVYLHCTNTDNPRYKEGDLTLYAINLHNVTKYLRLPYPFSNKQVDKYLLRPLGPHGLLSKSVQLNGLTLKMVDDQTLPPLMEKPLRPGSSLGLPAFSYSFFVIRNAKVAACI
T1 sequence (Q9Y251 36-109 limits assumed): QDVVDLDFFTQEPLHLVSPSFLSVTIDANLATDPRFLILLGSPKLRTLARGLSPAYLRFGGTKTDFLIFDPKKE

CAG myeloma cancer cells = assay: CAG myeloma xenograft bone metastasis model (luciferase imaging); assay type: in vivo, mouse; details: NOD/SCID mice
Excerpt: Finally, we examined a CAG myeloma xenograft model, which faithfully recapitulates the invasion of multiple myeloma to the bone marrow. We compared the efficacy of 2 to bortezomib, a proteasome inhibitor and standard treatment for multiple myeloma and lymphomas, and also explored the possibility of synergistic proteasomal and HPSE inhibitor treatment. In contrast to the single initial dose regimens used for B16 and 4T1, a continuous dosing regimen was used in this assay to gauge the efficacy of 2 over longer treatment periods. Following injection of luciferase expressing CAG cells, mice were treated with a course of 2 (300 nmol/day i.p.), bortezomib (0.5 mg/kg twice weekly i.p.), or a combination of both compounds. […]
(§1) Mice were sacrificed after 14 days and the lungs were dissected, photographed and evaluated for the number of metastatic foci/lung. […]
Bioluminescence imaging of lung metastases produced by luciferase-expressing 4T1 cells was carried out using a highly sensitive, cooled charge-coupled device camera assembled in a specimen box (IVIS; Xenogen Corp, Hopkinton, MA). […] The tumor burden was quantified using Living Image software (Xenogen) (12, 13). […]
CAG myeloma - Luciferase-labeled CAG human myeloma cells (3x106) were injected into the tail vein of NOD/SCID mice. […] Tumor burden was quantified using Living Image software. […]

B16 melanoma cells = assay: B16 murine melanoma experimental lung metastasis model; assay type: in vivo, mouse; details: C57BL/J6 mice, i.p. 300 nmol 2 or 150 μg SST0001, then i.v. B16 cells with 2 nmol 2 or 10 μg SST0001; after 14 d; vs PBS
Procedure: We initially tested a B16 murine melanoma metastasis model, measuring the formation of metastatic lung tumors by B16 melanoma cells after intravenous (i.v.) injection. The efficacy of covalent HPSE inhibition by 2 was compared to SST0001 (Roneparstat), a current best-in-class HPSE inhibitor and clinical trial candidate (SI Appendix, Fig. S1). Mice were inoculated intraperitoneally (i.p.) with 300 nmol of 2 (∼15 μmol/kg for a 20 g mouse), or 150 μg SST0001, followed by an i.v. injection of B16 cells alongside 2 nmol 2 or 10 μg SST0001.
For HS-degradation assays, ECM coated dishes were incubated with 200 ng recombinant HPSE in 1 mL reaction mixture (10 mM buffer Phosphate-Citrate pH 6.0, 50 mM NaCl, 1 mM DTT, 1 mM CaCl2) containing HPSE inhibitors or DMSO control. […] The Sepharose 6B column was eluted with PBS, and 35S radioactivity of 0.2 mL fractions quantitated using a liquid scintillation analyzer (Packard BioScience) (11). […]
Cells in the upper chamber were separated by Matrigel from a lower chamber containing 600 µL DMEM, supplemented with 10% FBS. […] 10 randomly selected microscopic fields were recorded, and cell invasion calculated using ImageJ, by quantitating the percentage of the field stained by crystal violet. […]
as §1

HPSE inhibition (cABPP) (HPSE): nanomolar HPSE inhibition potencies
Compound: CC(=O)N[C@H]1[C@@H](O[C@H]2[C@H](O)[C@@H](O)[C@@H]3O[C@@H]3[C@@H]2C(=O)O)O[C@H](CO)[C@@H](O)[C@@H]1O [compound 2]
metastatic burden (bioluminescent flux) (CAG myeloma cancer cells; 2 300 nmol/day i.p., bortezomib 0.5 mg/kg twice weekly i.p., imaging over time): moderate reduction in metastatic burden
antimetastatic efficacy at 33 d timepoint (CAG myeloma cancer cells; continuous dosing, 33 d): somewhat reduced efficacy following prolonged treatment
lung metastases (metastatic foci/lung) (B16 melanoma cells): marked reduction in lung growths
